Target: Human LDHA (Homo sapiens (Human), UniProt P00338)
Assay: human LDHA primary biochemical assay (Example 1)
Details: biochemical LDHA inhibitory activity, assay of Example 1
Source text: This example describes a human LDHA primary biochemical assay employed in the characterization of a compound of Formula I in an embodiment of the dislcosure.
Test compounds were placed in a Greiner Bio-One (Monroe, N.C.) 1536-well black solid bottom assay plate. 200 millimolar (mM) Tris HCl, pH 7.4, 100 micromolar (μM) EDTA and 0.01% TWEEN-20™, final concentration, was used as the assay buffer. The LDHA reagent was 2 nanomolar (nM) Human LDHA (Meridian Life Science, Inc., Memphis, Tenn.), final concentration, in assay buffer. The substrate reagent was 0.06 mM NADH and 0.2 mM sodium pyruvate, final concentration, in assay buffer. The resazurin/diaphorase coupling reagent was 0.037 mM resazurin and 0.133 milligrams per milliliter (mg/mL) diaphorase, final concentration, in assay buffer. The inhibition of LDHA activity was measured by fluorescence emission. […]

Structure (SMILES)	IC50 [nM]
CCC#Cc1cc(-c2nn(-c3nc(C(=O)O)cs3)c(CC3CC3)c2Cc2ccc([S+](N)(=O)[O-])c(F)c2)ccc1F [Compound 109, 2-(3-(3-(but-1-yn-1-yl)-4-fluorophenyl)-5-(cyclopropylmethyl)-4-(3-fluoro-4-sulfamoylbenzyl)-1H-pyrazol-1-yl)thiazole-4-carboxylic acid]	< 100
Cc1ccc(C2CC(c3cccc(-c4nn(-c5nc(C(=O)O)cs5)c(CC5CC5)c4Cc4ccc(S(N)(=O)=O)c(F)c4)c3)C2)s1 (stereo not shown) [Compound 133, 2-(5-(cyclopropylmethyl)-4-(3-fluoro-4-sulfamoylbenzyl)-3-(3-(3-(5-methylthiophen-2-yl)cyclobutyl)phenyl)-1H-pyrazol-1-yl)thiazole-4-carboxylic acid]	< 100
Cc1ccc(C#Cc2cccc(-c3nn(-c4nc(C(=O)O)cs4)c(C4CC4C4CC4)c3Cc3ccc(S(N)(=O)=O)c(F)c3)c2)s1 (stereo not shown) [Compound 134, 2-(5-([1,1′-bi(cyclopropan)]-2-yl)-4-(3-fluoro-4-sulfamoylbenzyl)-3-(3-((5-methylthiophen-2-yl)ethynyl)phenyl)-1H-pyrazol-1-yl)thiazole-4-carboxylic acid]	100 to 1000
NS(=O)(=O)c1ccc(Cc2c(-c3ccc(F)c(-c4ccc(F)c(F)c4)c3)nn(-c3nc(C(=O)O)cs3)c2CC2CC2)cc1F [Compound 136, 2-(5-(cyclopropylmethyl)-4-(3-fluoro-4-sulfamoylbenzyl)-3-(3′,4′,6-trifluoro-[1,1′-biphenyl]-3-yl)-1H-pyrazol-1-yl)thiazole-4-carboxylic acid]	< 100
NS(=O)(=O)c1ccc(Cc2c(-c3ccc(F)c(-c4ccc(C(F)(F)F)cc4)c3)nn(-c3nc(C(=O)O)cs3)c2CC2CC2)cc1F [Compound 138, 2-(5-(cyclopropylmethyl)-3-(6-fluoro-4′-(trifluoromethyl)-[1,1′-biphenyl]-3-yl)-4-(3-fluoro-4-sulfamoylbenzyl)-1H-pyrazol-1-yl)thiazole-4-carboxylic acid]	< 100
NS(=O)(=O)c1ccc(Cc2c(-c3ccc(F)c(-c4ccc(Cl)cc4)c3)nn(-c3nc(C(=O)O)cs3)c2CC2CC2)cc1F [Compound 139, 2-(3-(4′-chloro-6-fluoro-[1,1′-biphenyl]-3-yl)-5-(cyclopropylmethyl)-4-(3-fluoro-4-sulfamoylbenzyl)-1H-pyrazol-1-yl)thiazole-4-carboxylic acid]	< 100

The next lines start with the values.

IC50 [nM]	Structure (SMILES)
< 100	NS(=O)(=O)c1ccc(Cc2c(-c3ccc(F)c(C4=CCC(C(F)(F)F)CC4)c3)nn(-c3nc(C(=O)O)cs3)c2CC2CC2)cc1F (stereo not shown) [Compound 102, 2-(5-(cyclopropylmethyl)-3-(6-fluoro-4′-(trifluoromethyl)-2′,3′,4′,5′-tetrahydro-[1,1′-biphenyl]-3-yl)-4-(3-fluoro-4-sulfamoylbenzyl)-1H-pyrazol-1-yl)thiazole-4-carboxylic acid]
< 100	NS(=O)(=O)c1ccc(Cc2c(-c3ccc(F)c(C4=Cc5ccccc5C4)c3)nn(-c3nc(C(=O)O)cs3)c2CC2CC2)cc1F [Compound 105, 2-(5-(cyclopropylmethyl)-3-(4-fluoro-3-(1H-inden-2-yl)phenyl)-4-(3-fluoro-4-sulfamoylbenzyl)-1H-pyrazol-1-yl)thiazole-4-carboxylic acid]
< 100	NS(=O)(=O)c1ccc(Cc2c(-c3ccc(F)c(C4=CCC(F)(F)CC4)c3)nn(-c3nc(C(=O)O)cs3)c2CC2CC2)cc1F [Compound 107, 2-(5-(cyclopropylmethyl)-4-(3-fluoro-4-sulfamoylbenzyl)-3-(4′,4′,6-trifluoro-2′,3′,4′,5′-tetrahydro-[1,1′-biphenyl]-3-yl)-1H-pyrazol-1-yl)thiazole-4-carboxylic acid]
< 100	NS(=O)(=O)c1ccc(Cc2c(-c3ccc(F)c(C4=CCC5(CC4)CC5)c3)nn(-c3nc(C(=O)O)cs3)c2CC2CC2)cc1F [Compound 108, 2-(5-(cyclopropylmethyl)-3-(4-fluoro-3-(spiro[2.5]oct-5-en-6-yl)phenyl)-4-(3-fluoro-4-sulfamoylbenzyl)-1H-pyrazol-1-yl)thiazole-4-carboxylic acid]
